Square brackets hold non-standard residues; d marks the D form. Ends that are not written are not given here. Peptide text beside a SMILES is read from it. Dmt = Cc1cc(O)cc(C)c1C[C@H](N)C(=O)O; Inp = O=C(O)C1CCNCC1
How the values were obtained:
SH-SY5Y cells = assay: Mitochondrial membrane potential (JC-1) in 6-OHDA-treated SH-SY5Y cells; assay type: cell-based, human; settings: 6-OHDA 100 µM, 6 h
Experimental: Mitochondrial function was assessed by monitoring changes in MMP (∆Ψm) using the fluorescent probe, JC-1 fluorescence dye (5,5′,6,6′-tetrachloro-1,1′,3,3′-tetraethyl-imidacarbocyanine iodide, Molecular Probes, T3168, Eugene, Oregon, USA). The assay was performed according to the method described by Silva et al.. Briefly, SH-SY5Y cells were exposed 6 h to 6-OHDA (100 μM) in the presence or absence of peptides. After incubation, cells were washed with ice-cold PBS, and then JC-1 reagent (3 µM, 200 µL) was added for 15 min at 37 °C. Afterwards, JC-1 was removed, and cells were washed with PBS. The formation of JC-1 aggregates (490 nm of excitation and 590 nm of emission) and the monomeric form of JC-1 (490 nm of excitation and 530 nm of emission) was accompanied simultaneously in the plate reader for 30 min. Results were expressed as the ratio of the monomers/aggregates of JC-1 in the percentage of control.

mTOR = assay: Western blot, mTOR phosphorylation in 6-OHDA-treated SH-SY5Y cells; assay type: cell-based, human; settings: peptide 1 and 10 µM, 24 h
Experimental: The neuroblastoma SH-SY5Y cells were grown in a 6-well plate and when 80–90% confluent treated with 6-OHDA (100 µM) for 24 h. Then cells were stimulated with peptides for 2.5, 5, 7.5 and 10 min (for AKT) or 24 h (for mTOR). When needed, a 30 min pre-incubation step with LY 294002 was included before analogs and 6-OHDA addition. Stimulation was terminated by aspiration of the medium. Cells were washed 2 times with ice-cold PBS, and then 200 µL of ice-cold lysis buffer [150 mM NaCl, 20 mM Tris–HCl, glycerol, 5 mM EDTA, 0.5 mM phenylmethylsulphonylfluoride (PMSF), 10% Triton X-100, 100 mM protease inhibitors, pH 7.4] was added. Cells were incubated on ice for 15 min. Lysates were then centrifuged at 12,000×g for 10 min at 4 °C, and the supernatants were used as the total cell lysates. The protein content in the supernatants was quantified using the Bio-Rad protein assay kit. […] Following six washes with TBS-T, the protein bands were detected with the Clarity Western ECL reagent from Bio-Rad. The band intensity was quantified by NIH ImageJ densitometric analysis. For quantification, specific phosphorylation was calculated as the ratio of phosphorylated AKT or mTOR signals to the total Akt or mTOR signal detected. […]

[1] = Oxygen radical absorption capacity (ORAC); settings: peptides 10 µM, AAPH 12 mM, fluorescein; mean ± SEM
Experimental: The ability of peptides to neutralize the peroxyl radicals was evaluated in ORAC according to the described method. Peptides (20 µL) and fluorescein (120 µL; 70 nM) were placed in a microplate well and pre-incubated for 15 min at 37 °C. Then, 60 µL of 2,2ʹ-azobis (2-amidino-propane) dihydrochloride (AAPH) as a radical generator was added in a final concentration of 12 mM. The fluorescence was read at wavelengths of 458 nm (excitation) and 520 nm (emission) and recorded every minute for 240 min. A blank using phosphate buffer instead of […] and a calibration curve using Trolox as standard (1–8 µM, final concentration) were also carried on in each assay. Final results were presented in µmol of Trolox equivalents/ µM peptide (µmol TE/ µM peptide).

[2] = Ferric reducing antioxidant power (FRAP); settings: peptides 10 µM, 37 °C, 30 min, absorbance 593 nm; mean ± SEM
Experimental: FRAP assay adapted to microscale with minor modifications was used to measure the ferric reducing ability of peptides. Acetate buffer (0.3 M, pH 3.6), 2,4,6-Tris(2-pyridyl)-s-triazine (TPTZ, 10 mM prepared in 40 mM HCl), and ferric solutions (20 mM) were freshly mixed at a ratio of 10:1:1 and place in a 96-well microplate. Then, 198 µL of FRAP reagent and 2 µL of the peptide sample was mixed and incubated at 37 °C in the dark for 30 min. The absorbance was measured at 593 nm using a microplate reader (Bioteck, Epoch/2 microplate reader, Winooski, VT, USA). The difference between the absorbance of the test sample and the blank reading was calculated and expressed as µM of FeSO4/g of the peptide. FeSO4 was used as standard.

Molecule | phosphorylated mTOR compared with the 6-OHDA-injured group (mTOR) | ORAC, ability to neutralize the peroxyl radicals [1] | FRAP, ability to reduce iron ions [2] | other results
Cc1cc(O)cc(C)c1C[C@H](N)C(=O)N1CCC[C@H]1C(=O)N[C@@H](CC(C)C)C(=O)N[C@@H](CC(=O)O)C(=O)N[C@@H](CC(C)C)C(=O)N[C@@H](Cc1ccccc1)C(=O)O [analog 1, Dmt-Pro-Leu-Asp-Leu-Phe-OH] (H-[Dmt]PLDLF-OH) |  |  |  | effect on MMP depolarization (SH-SY5Y cells; peptide 10 µM): couldn’t decrease
Cc1cc(O)cc(C)c1C[C@H](N)C(=O)N1CCC(C(=O)N[C@@H](CC(C)C)C(=O)N[C@@H](CC(=O)O)C(=O)N[C@@H](CC(C)C)C(=O)N[C@@H](Cc2ccccc2)C(=O)O)CC1 [analog 5, Dmt-Inp-Leu-Asp-Leu-Phe-OH] (H-[Dmt][Inp]LDLF-OH) | significant increase |  |  | 
CC(C)C[C@H](NC(=O)C1CCN(C(=O)[C@@H](N)Cc2ccc(O)cc2)CC1)C(=O)N[C@@H](CC(=O)O)C(=O)N[C@@H](CC(C)C)C(=O)N[C@@H](Cc1ccccc1)C(N)=O [analog 7, Tyr-Inp-Leu-Asp-Leu-Phe-NH2] (H-Y[Inp]LDLF-NH2) | significant increase |  |  | 
YPLDLF [R-6, rubiscolin-6] |  | 2789 ± 131.6 µmol Eq. Trolox/g of peptide | 1.09 ± 0.20 µM Eq. FeSO4/g of peptide | effect on MMP changes caused by the neurotoxin (SH-SY5Y cells; peptide 0.1-10 µM): markedly decreased
YPLDLF-NH2 [analog 6, Tyr-Pro-Leu-Asp-Leu-Phe-NH2] |  | 3143 ± 164.4 µmol Eq. Trolox/g of peptide | 0.87 ± 0.22 µM Eq. FeSO4/g of peptide | 

Reference: paper PMC10901950, “Neuroprotective and Anti-inflammatory Effects of Rubiscolin-6 Analogs with Proline Surrogates in Position 2” (Neurochemical Research, 2023)
